The subject of assay [1] is hTNFα-induced neutrophil recruitment. The assay can be described thus: Neutrophil recruitment in mice, compound pre-mixed with hTNFα and injected i.p. The format is in vivo, Balb/c mice. Conditions: for effect of compound alone on neutrophil recruitment: compound only mice, no TNFα; for neutrophil recruitment versus TNFα in the absence of the compound: sample 1, ratio compound:TNFα 0.1:1, i.p.; for neutrophil recruitment versus TNFα in the absence of the compound / inhibition of neutrophil recruitment: 2 h. On the procedure: In separate studies, compounds of formula (1) and formula (2) were mixed with 20 μM solutions of TNFα dissolved in phosphate buffered saline (PBS) to a concentration of 2 μM, 20 μM and 200 μM. The ratio of each compound to TNFα was, therefore, 0.1:1 (sample 1), 1:1 (sample 2) and 10:1 (sample 3). […] This process separates protein bound compound and free compound. A control sample containing PBS only was processed in the same way to provide a vehicle control for the study. The concentration of eluted protein was determined using a Nanodrop (ND-1000). The TNFα:compound complexes were diluted in PBS to a concentration for injection of 0.03 μg/kg.
For the study, typically, each group contained 10 male Balb/c mice (Charles River) apart from an anti-human TNFα antibody positive control, which used a set of 5 mice.
Compound only mice were also included in the study to assess the effect of compound on neutrophil recruitment.
All mice were killed by cervical dislocation two hours post-injection of hTNFα (t=2 h) and the peritoneal cavity was lavaged with 3 mL of FACS buffer (500 mL PBS containing 2 g bovine serum albumin, 6 mL HEPES buffer and […]). Lavage fluid was aspirated and neutrophil numbers were assessed by staining cells with anti-Gr1 PE and anti-CD45 FITC by FACS as detailed below.
100 μL of lavage fluid from each sample was aliquoted into FACS tubes. A FACS cocktail was made up using anti-GR-1 PE (BD cat #553128 Lot #75542) at 1 in 39 dilution and anti-CD45 FITC (BD cat #553080 Lot #80807) at 1 in 19 dilution in FACS buffer. Fc block (BD Cat #553142 Lot #87810) was prepared 1 in 10 with FACS buffer and 10 μL added to each sample 5 minutes before adding the antibody cocktail. […] Samples were then left for 20 mins on ice. 1 mL of FACS Lyse solution (BD Cat #349202 Lot #29076, diluted 1:10 in dH2O) was added to each tube, mixed and left at room temperature for 5 minutes. 1 mL of FACS Buffer was then added to each tube and centrifuged at 400 g for 5 minutes. The FACS buffer was then carefully poured off and the tip of the tube dabbed on absorbent paper to leave the tube completely dry. Then […] of 1 in 10 Reference Bead solution (Sigma cat # P2477 Lot #116K1612) diluted in FACS buffer was added to each tube.
Samples were analysed using FACScalibur II and FloJo software.

Assay [2] has as its target T1, TNFα binding to the TNF receptor (TNFR-ECD) (Homo sapiens, UniProt P01375).
T1 construct: purchased R&D Systems
The assay can be described thus: Meso Scale Discovery (MSD) assay of TNFα binding to plate-coated TNFR-ECD. The note with it: MSD assay, TNF 2 ng/ml, 5% DMSO; read-out: EC50 (enhanced binding of TNFα to immobilised ECD-TNFR). On the procedure:
384 well uncoated plates (standard binding) Meso Scale Discovery plates (MSD) were coated overnight with the extracellular domain of TNFR (TNFR-ECD) (10 μl, 1 ug/mL in PBS). To ensure even distribution plates were centrifuged at 1000 rpm for 2 minutes. The plates were then sealed and stored at +4° C. overnight.
The wells of the plates were then washed three times in 50 μl phosphate buffered saline pH 6.5 (PB) with 0.05% Tween 20 (wash buffer), and then blocked with 50 μl 2% BSA. The plates were then incubated at room temperature on a shaker (600 rpm) for 2 hours. After this incubation plates were washed (3×50 μl wash buffer per well).
During the blocking incubation, compounds of formulae (1) and (2) were pre-incubated with TNF (R&D Systems) prior to addition to the pre-blocked and washed MSD plates. For a single point assay as shown in FIG. 3A the compounds were assayed at a final concentration of 100 μM (5% final v/v DMSO).
Pre-diluted compounds of formulae (1) and (2) were added at a ratio of 1:1 to 4 ng/mL TNF (final concentration 2 ng/ml), and then incubated at room temperature on a shaker 600 rpm for 1 hour.
10 μl of pre-incubated mixtures of compound of formulae (1) or (2) with TNFα were added to the prepared MSD plate and incubated at room temperature on a shaker for 1 hour.
The plates were then washed with wash buffer (3×50 μl per well). Sulfo-tagged anti-TNF polyclonal antibody was then added to each well and the plates incubated for a further 1.5 hours at room temperature on a shaker.
The plates were then washed (3×50 μl wash buffer per well), followed by the addition of 50 μl MSD Read buffer T plus surfactant (diluted 1 in 2 in H2O) and read on a SECTOR Imager 6000.
For single point assays percentage inhibition was calculated using a control sample without compound.
For EC50s determination results were calculated by standard means using a 4 parameter logistic model (sigmoidal dose response model).

For another assay, the target named is TNFα (Homo sapiens, UniProt P01375). The assay can be described thus: Fluorescence polarization assay, competition with the compound of formula (4) for TNFα. Conditions: TNFα 50 nM, compound of formula (4) 10 nM, 5% DMSO; read-out: IC50 (inhibition of binding of the compound of formula (4) to TNFα). The method, then:
The final concentrations of TNFα and the compound of formula (4) were 50 nM and 10 nM respectively in a total assay volume of 25 μl. Plates were read on an Analyst HT reader. An IC50 was calculated using xlfit (4 parameter logistic model) in Activity Base.
C87 was preincubated with TNFα for 1 hour prior to assay against the fluorescent compound (probe). Competition with the fluorescent compound either directly (binding at the same site) or indirectly (disrupting TNF) is detected by a reduction in FP.
A general note: Polarisation of emitted light reports the rotation of a fluorescent probe.

Results on two compounds are retold here after US10705094B2, “TNF receptor signaling modulator assay” (UCB Biopharma SRL, priority 2015, dated 2020).

T1 sequence (P01375 77-233 limits assumed): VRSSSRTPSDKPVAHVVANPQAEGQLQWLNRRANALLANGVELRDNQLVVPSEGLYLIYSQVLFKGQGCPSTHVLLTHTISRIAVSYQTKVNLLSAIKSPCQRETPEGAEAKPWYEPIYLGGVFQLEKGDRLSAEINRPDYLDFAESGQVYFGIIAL
Sequence of TNFα (P01375 77-233 limits assumed): as above

For orientation: EC50 means the concentration at which the effect is half-maximal. In general, IC50 refers to the concentration needed to halve the response being measured. In the case of `Cc1ccc(C)c(Cn2c(C(O)c3ccncc3)nc3ccccc32)c1` (stereo not shown) [Compound (1), [1-(2,5-Dimethylbenzyl)-1H-benzimidazol-2-yl](pyridin-4-yl)methanol], in assay [1], the “effect of compound alone on neutrophil recruitment” value is “negligible effect” and the “neutrophil recruitment versus TNFα in the absence of the compound” value is recorded as “not significantly different”. In addition, the “inhibition of neutrophil recruitment” value in assay [1] (sample 2, ratio compound:TNFα 1:1, i.p.) is listed as 86%. Also, the “inhibition of neutrophil recruitment” value in assay [1] (sample 3, ratio compound:TNFα 10:1, i.p.) came out at 85%. Besides, in assay [2], the EC50 came to 4600 nM. The IC50 at TNFα was determined as 167 nM.
For `Cc1ccc(C)c(Cn2c(C(O)c3ccncc3)nc3ccc(-c4cnn(C)c4)cc32)c1` (stereo not shown) [Compound (2), [1-(2,5-Dimethylbenzyl)-6-(1-methyl-1H-pyrazol-4-yl)-1H-benzimidazol-2-yl](pyridin-4-yl)methanol], in assay [1], the “effect of compound alone on neutrophil recruitment” value is “negligible effect” and the “neutrophil recruitment versus TNFα in the absence of the compound” value is “not significantly different”. In assay [2], the EC50 stood at 3700 nM. Moreover, at TNFα, the IC50 was determined as 102 nM.
